The assay concerns maternal sera (antibodies). The assay is described as follows: ELISA peptide-binding of maternal sera (Example 6). The arrangement: species or system human. Particulars: for Number of Non-Transmitters which bound to peptide / Percent of Non-Transmitters which bound to peptide: N = 12; for Number of Transmitters which bound to peptide / Percent of Transmitters which bound to peptide: N = 4. From the text:
A total of 86 maternal sera samples obtained from patients of the Hospital of the University of Pennsylvania during the third trimester of pregnancy were used in this study 58 (67%) were non-transmitters and 28 (33%) were transmitters. This is approximately consistent with the national average (i.e. a rate of transmission between 25-30%). Transmission status was based upon serological or molecular diagnosis of children (at an age of greater than 15 months) born to these mothers. Because of the constraints on the volume of serum available for many of these samples, not all sera were analyzed with all the peptides. However, each sera sample was run with at least 40 peptides.
These peptides are of an average length of 16 amino acids and covered the entire external as well as the transmembrane glycoprotein of HIV-1. Peptide binding was analyzed by ELISA essentially as described in Example 3.
The results of one study, using some of the peptides identified above among others, is provided in Table 12, which illustrates the number and percent of non-transmitters which bound to the tested peptide. The percentage designation refers to the percentage of sera samples which bound to a particular peptide. A value of greater than 0% means that at least one of the samples bound to the particular peptides.

As to “S19C: Peptide S19C, Sequence ID No. 196; described in the January 1991 Catalog (STQLLLNGSLAEEEVVIR)”, the “Number of Non-Transmitters which bound to peptide” value is 0, the “Percent of Non-Transmitters which bound to peptide” value stood at 0%, the “Number of Transmitters which bound to peptide” value is on record as 0 and the “Percent of Transmitters which bound to peptide” value was 0%.

On to “A620: gp41 peptide, amino acids 615-627, HIV strain IIIB, SEQ ID NO: 172 (SNKSLEQIWNNMT) [Peptide A620]”, for which the “Number of Non-Transmitters which bound to peptide” value is 1, the “Percent of Non-Transmitters which bound to peptide” value is on record as 8.3%, the “Number of Transmitters which bound to peptide” value worked out at 0 and the “Percent of Transmitters which bound to peptide” value came out at 0%.

In the case of “41-13: gp41 peptide, amino acids 616-632, HIV strain BRU, SEQ ID NO: 153 (NASWSNKSLEQIWNNMT) [Peptide 41-13]”, the “Number of Non-Transmitters which bound to peptide” value is recorded as 0, the “Percent of Non-Transmitters which bound to peptide” value came to 0%, the “Number of Transmitters which bound to peptide” value came out at 0 and the “Percent of Transmitters which bound to peptide” value is 0%.

As for “124: gp41 peptide, amino acids 646-660, SEQ ID NO:123 (IEESQNQQEKNEQEL) [Peptide 124]”, the “Number of Non-Transmitters which bound to peptide” value worked out at 0, the “Percent of Non-Transmitters which bound to peptide” value was found to be 0%, the “Number of Transmitters which bound to peptide” value turned out to be 0 and the “Percent of Transmitters which bound to peptide” value was determined as 0%.

Take “5099: gp41 peptide, amino acids 512-543, HIV strain IIIB, SEQ ID NO: 162 (AYGIGALFLGFLGAAGSTMGAASMTLTVQARC) [Peptide 5099]”: the “Number of Non-Transmitters which bound to peptide” value turned out to be 1, the “Percent of Non-Transmitters which bound to peptide” value turned out to be 83%, the “Number of Transmitters which bound to peptide” value is listed as 0 and the “Percent of Transmitters which bound to peptide” value came to 0%.

For the substance “A6938: gp120 peptide, amino acids 200-217, HIV strain IIIB, SEQ ID NO: 135 (VITQACPKVSFEPIPIHY) [Peptide A6938]”, the “Number of Non-Transmitters which bound to peptide” value is recorded as 0, the “Percent of Non-Transmitters which bound to peptide” value was determined as 0%, the “Number of Transmitters which bound to peptide” value worked out at 0 and the “Percent of Transmitters which bound to peptide” value is listed as 0%.

Take “41-11: gp41 peptide, amino acids 541-564, HIV strain MN, SEQ ID NO: 157 (QARQLLSGIVQQQNNLLRAIEAQQ) [Peptide 41-11]”: the “Number of Non-Transmitters which bound to peptide” value was 0, the “Percent of Non-Transmitters which bound to peptide” value turned out to be 0%, the “Number of Transmitters which bound to peptide” value was 0 and the “Percent of Transmitters which bound to peptide” value is recorded as 0%.

In the case of “WSK-1: gp120 peptide, amino acids 378-394, SEQ ID NO:115 (GGEFFYCNSTQLFNSTW)”, the “Number of Non-Transmitters which bound to peptide” value came out at 0, the “Percent of Non-Transmitters which bound to peptide” value was 0%, the “Number of Transmitters which bound to peptide” value stood at 0 and the “Percent of Transmitters which bound to peptide” value worked out at 0%.

As to “A824: gp41 peptide, amino acids 824-831, HIV strain IIIB, SEQ ID NO: 175 (EGTDRVIE) [Peptide A824]”, the “Number of Non-Transmitters which bound to peptide” value came out at 0, the “Percent of Non-Transmitters which bound to peptide” value was 0%, the “Number of Transmitters which bound to peptide” value was found to be 0 and the “Percent of Transmitters which bound to peptide” value is 0%.

On to “RG-1: gp41 peptide, amino acids 510-516, HIV strain IIIB, SEQ ID NO: 177 (KRAVGIG)”, for which the “Number of Non-Transmitters which bound to peptide” value is recorded as 3, the “Percent of Non-Transmitters which bound to peptide” value turned out to be 25%, the “Number of Transmitters which bound to peptide” value turned out to be 1 and the “Percent of Transmitters which bound to peptide” value was 25%.

In the case of “BS-1: gp120 peptide, amino acids 319-329, SEQ ID NO:114 (TIGKIGNMRQA)”, the “Number of Non-Transmitters which bound to peptide” value is on record as 0, the “Percent of Non-Transmitters which bound to peptide” value was 0%, the “Number of Transmitters which bound to peptide” value came out at 0 and the “Percent of Transmitters which bound to peptide” value was 0%.

As for “105: gp120 peptide, amino acids 286-300, SEQ ID NO:112 (VQLNTSVEINCTRPN) [Peptide 105]”, the “Number of Non-Transmitters which bound to peptide” value is 0, the “Percent of Non-Transmitters which bound to peptide” value is 0%, the “Number of Transmitters which bound to peptide” value was found to be 0 and the “Percent of Transmitters which bound to peptide” value is 0%.

Take “41-21: gp41 peptide, amino acids 661-683, HIV strain IIIB, SEQ ID NO: 152 (LELDKWASLWNWFNITNWLWYIK) [Peptide 41-21]”: the “Number of Non-Transmitters which bound to peptide” value came out at 0, the “Percent of Non-Transmitters which bound to peptide” value is 0%, the “Number of Transmitters which bound to peptide” value turned out to be 0 and the “Percent of Transmitters which bound to peptide” value is on record as 0%.

For the substance “41-22: gp41 peptide, amino acids 702-720, HIV strain BH10, SEQ ID NO: 155 [Peptide 41-22]”, the “Number of Non-Transmitters which bound to peptide” value is given as 0, the “Percent of Non-Transmitters which bound to peptide” value is listed as 0%, the “Number of Transmitters which bound to peptide” value was 0 and the “Percent of Transmitters which bound to peptide” value is recorded as 0%.

Take “A733: gp41 peptide, amino acids 728-745, HIV strain IIIB, SEQ ID NO: 174 (DRPEGIEEEGGERDRDRS) [Peptide A733]”: the “Number of Non-Transmitters which bound to peptide” value came to 1, the “Percent of Non-Transmitters which bound to peptide” value was 8.3%, the “Number of Transmitters which bound to peptide” value turned out to be 0 and the “Percent of Transmitters which bound to peptide” value turned out to be 0%.

For the substance “RG-2: gp41 peptide, amino acids 678-697, HIV strain IIIB, SEQ ID NO: 178 (WLWYIKLFIMIVGGLVGLRI)”, the “Number of Non-Transmitters which bound to peptide” value was 0, the “Percent of Non-Transmitters which bound to peptide” value is 0%, the “Number of Transmitters which bound to peptide” value was 0 and the “Percent of Transmitters which bound to peptide” value was found to be 0%.

As for “KQIINMWQEVGKAMYA/CTRPNNNTRKSIRIQRGPG (KQIINMWQEVGKAMYACTRPNNNTRKSIRIQRGPG) [1/SP10IIIB]”, the “Number of Non-Transmitters which bound to peptide” value amounted to 8, the “Percent of Non-Transmitters which bound to peptide” value came out at 66.7%, the “Number of Transmitters which bound to peptide” value stood at 1 and the “Percent of Transmitters which bound to peptide” value is recorded as 25%. Further, for the setting “Example 6”, the “Correlation of peptide binding with non-transmitters (in words)” value is given as “selectively correlate with non-transmitters” and the “Fold binding, non-transmitters vs transmitters” value is “at least two fold greater”. For the same substance, the “Percent of Non-Transmitters which bound to peptide” value (listed as 1/SP10 IIIB) was “greater than 50%”.

Take “A487: gp120 peptide, amino acids 481-503, HIV strain IIIB, SEQ ID NO: 132 (ELYKYKVVKIEPLGVAPTKAKRR) [Peptide A487]”: the “Number of Non-Transmitters which bound to peptide” value is 1, the “Percent of Non-Transmitters which bound to peptide” value is listed as 8.3%, the “Number of Transmitters which bound to peptide” value worked out at 0 and the “Percent of Transmitters which bound to peptide” value came out at 0%.

The values above are taken from US5556744A, “Methods and compositions for diagnosing and treating certain HIV infected patients” (The Trustees of the University of Pennsylvania, priority 1994, dated 1996).
